Here are results for three compounds from patent publication US5242929A, “Derivatives of substituted imidazol-2-one and process for their preparation” (Farmitalia Carlo Erba S.r.l., priority 1991, dated 1993).

Assay [1] concerns the target T1, 5HT3 receptor (Rattus norvegicus, UniProt P35563).
T1 sequence (P35563 24-483): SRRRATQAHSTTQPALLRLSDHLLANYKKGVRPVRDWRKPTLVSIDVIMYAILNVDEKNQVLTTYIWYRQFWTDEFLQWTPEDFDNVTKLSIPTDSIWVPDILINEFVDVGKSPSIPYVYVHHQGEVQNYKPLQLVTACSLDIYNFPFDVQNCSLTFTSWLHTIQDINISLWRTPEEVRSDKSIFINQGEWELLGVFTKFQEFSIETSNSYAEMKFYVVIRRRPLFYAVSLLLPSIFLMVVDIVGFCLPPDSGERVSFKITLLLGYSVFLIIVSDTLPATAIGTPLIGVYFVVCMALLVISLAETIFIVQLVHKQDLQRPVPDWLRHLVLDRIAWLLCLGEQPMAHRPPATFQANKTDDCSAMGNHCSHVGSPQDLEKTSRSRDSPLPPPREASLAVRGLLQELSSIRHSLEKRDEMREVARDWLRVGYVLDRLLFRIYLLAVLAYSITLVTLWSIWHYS
Put plainly: inhibition of the binding of ^3 H-GR65630 in rat entorhinal cortex. The arrangement: labeled in the entorhinal cortex of the rat brain; from tissue; host or cells: rat entorhinal cortex. To be noted: for binding model / interaction with 5-HT3 receptors: entorhinal cortex of the rat brain, ^3 H-GR 65630.

Assay [2] addresses T1, 5HT3 receptor. Put plainly: von Bezold-Jarisch chemoreflex evoked by 5-HT in the anesthetised rat. In kind it is in vivo. To be noted: 5-HT 20 μg/kg i.v., anesthetized rat; for % inhibition of the Bezold-Jarisch reflex: mean ± S.E.M. from 6 animals, *p < 0.01 vs controls (Dunnett's test). More on the design: chemoreflex evoked by 5-HT in the anesthetised rat; from tissue; host or cells: whole living anesthetised rat, endogenous receptor (vagal afferents by own knowledge). As to the method: Pharmacol. 326, 36-44 (1984).
The following Table I reports the in vivo 5HT3 antagonist activity data obtained in this test for the representative compound of the invention 1-(1-azabicyclo[2.2.2]oct-3 yl)-3-(3-chlorophenyl)-imidazolidin-2-one (internal code FCE 26778).
Inhibition of the Bezold-Jarisch reflex elicited by 5-HT
(20 μg/kg i.v.) by i.v. FCE 26778 in the anesthetized rat.
Values are mean ± S.E.M. from 6 animals

Where two headings read alike, the source gives them in different places.

Take `CN1C2CCC1CC(OC(=O)c1cc(Cl)cc(Cl)c1)C2` (centres unmarked) [MDL 72222]: at 5HT3 receptor [1], the Ki – broadly, a dissociation constant, usually derived from enzyme kinetics or from competition with a known ligand – turned out to be 25.5 nM and the “binding model / interaction with 5-HT3 receptors” value (“binding model / interaction” below) is “displaced ^3 H-GR 65630 according to one site non-linear fitting”.

For the compound `O=C1N(c2cccc(Cl)c2)CCN1C1CN2CCC1CC2` (centres unmarked) [FCE 26778, 1-(1-azabicyclo[2.2.2]oct-3 yl)-3-(3-chlorophenyl)-imidazolidin-2-one], the Ki on 5HT3 receptor [1] amounted to 4.42 nM; at 5HT3 receptor [1] ([^3 H]GR 65630 labelled 5HT3 sites, rat entorhinal cortex, two site fitting, low affinity, read-out: Ki low) it was 1100 nM. Besides, the “binding model / interaction” value at 5HT3 receptor [1] was “interacted according to a two site non-linear fitting model”. Moreover, the “% inhibition of the Bezold-Jarisch reflex” value at 5HT3 receptor [2] (30 μg/kg i.v.) was found to be 26.66 ± 5.25%; on 5HT3 receptor [2] (100 μg/kg i.v.), 59.57 ± 5.87%; on 5HT3 receptor [2] (300 μg/kg i.v.), 81.33 ± 3.32%. Further, on 5HT3 receptor [2] (iv, limits 54.50-98.39), the ED50 (in general, the dose at which the effect has come halfway, by size or by number of responders) came to 0.0749 mg/kg.

Take `CCN(CC)CCNC(=O)c1cc(Cl)c(N)cc1OC` [Metoclopramide]: at 5HT3 receptor [1], affinity was put at a Ki of 547 nM and the “binding model / interaction” value was “displaced ^3 H-GR 65630 according to one site non-linear fitting”.
